Results on eight compounds are retold here after US7153525B1, “Microemulsions as precursors to solid nanoparticles” (The University of Kentucky Research Foundation, priority 2000, dated 2006).

A short description of series [1]: Pseudo-phase diagram fluorosurfactant screen: ethanol incorporation in E/F microemulsions. To be noted: maximum ethanol in stable clear E/F microemulsion. In kind it is physicochemical. The procedure:
Pseudo-Phase Diagrams: Fluorosurfactant Screen. Studies focused on E/F microemulsions that allowed for maximum solubilization of ethanol. […] Briefly, a small amount of ethanol was added to defined perflubron (X %)/(fluorosurfactant) (100-X %) mixtures in an attempt to solubilize ethanol and define the microemulsion window (i.e., portion of diagram that represents a clear system). […] While the mixture was stirring, ethanol was added in 5 μL (=[…] ethanol) aliquots. The clarity (transparency) of the systems as a function of the percentages of the three phases was plotted in order to define the microemulsion window, if any. This screen was repeated for each of the fluorosurfactant candidates.

Series [2] is described as follows: Solubility of fluorosurfactants in perflubron. To be noted: PDFOA at 25° C.
Series [3] can be described thus: Droplet and particle size by photon correlation spectroscopy. In kind it is physicochemical. The procedure: Modeling of E/F microemulsions: An ethanol-in-fluorocarbon(E/F) microemulsion was made having the following components: perflubron (0.7382 g), PDFOA (0.3195 g), and ethanol (0.3603 g). The weight of ethanol corresponded to 25.4% w/w of the final microemulsionor 65.7% of the microemulsion window (see FIG. 2). The average droplet size of 34.9 nm determined by photon correlation spectroscopy (dynamic light scattering at 11.3° for 300 seconds) agreed very well with the predicted ethanol droplet size based on simple mathematical modeling of surfactant-coated ethanol droplets. The total surface area of ethanol droplets that have an average diameter of 34.9 nm can be calculated in a series of equations as follows: Volume of one ethanol droplet=πd^3/6=2.226×10^−17 cm^3 (Equation 1) Total number of ethanol droplets=(0.3603 g[…])/[…]=1.989×10^16 droplets (Equation 2) Total surface area of each droplet=πd^2=3.827×10^−11 cm^2 (Equation 3) Total surface area of all ethanol droplets=1.989×10^16 droplets*3.827×10^−11 cm^2=760966 cm^2. (Equation 4) If we assume that PDFOA head-group (Mw 414.06 g/mol) occupies a space of 30 Å^2, then we can calculate the number of PDFOA molecules needed to cover the total surface area of all ethanol droplets from Equation 4 as: Total number of PDFOA molecules needed to cover the total surface area of all ethanol droplets=760966 cm^2/30×10^−16 cm^2=2.537×10^20 molecules of PDFOA. (Equation 5) Thus, 2.537×10^20 molecules of PDFOA would theoretically be needed to coat all of the surface area provided by all of the ethanol droplets. The ratio of ethanol to PDFOA molecules 65.7% through the microemulsion window was 10:1. […] The actual amount of PDFOA used to prepare the microemulsion was 0.3195 g which was within 3% of the predicted amount (0.3195 g/0.3282 g=0.973 or 97.3%) based on the measured droplet size of ethanol. Thus, this simple modeling supports the formation of a E/F microemulsion as well as the particle sizing method used.
To determine the existence of an oil-in-water microemulsion window for the microemulsion precursor, exactly two (2) milligrams of emulsifying wax were weighed accurately into ten separate 7-mL glass vials and melted at 50° C. on a temperature calibrated magnetic hot plate. Water (0.2 μm filtered) was then added (750–1000 μL) to form a homogeneous milky slurry in the stirring water at 50° C. To form the microemulsion precursor, the surfactant polyoxy 20 stearyl ether (100 mM) in water was added (0–250 μL) so that the final surfactant concentration ranged from 0 mM to 25 mM in the ten vials. The microemulsion precursor was then removed from heat (52–54° C.) and allowed to cool to 25° C. while stirring. […] Thus, an apparent microemulsion window was defined. One hundred (100) μL of each cooled system was taken and diluted with 900 μL water. The particle size of the diluted solid nanoparticles was determined using a Coulter N4 Plus Sub-Micron Particle Sizer at 20° C. by scattering light at 90° for 120 seconds. The particle sizes of systems with no surfactant added could not be determined since the systems contained precipitates that were greater than 3000 nm in diameter. […] To determine if the measured droplet sizes in either the microemulsion nanotemplate or the cured solid nanoparticles were due to the presence of surfactant micelles, samples were made as described above with no emulsifying wax and with final surfactant concentrations ranging from 0 mM to 100 mM in water. […] It is likely that the relatively heterogeneous nature of the polymeric surfactant makes the determination of its CMC difficult using conventional techniques. Photon correlation spectroscopy, using a Coulter N4 Plus Submicron Particle Sizer, was used to determine the existence and the size of the surfactant micelles.
Preparation of cationic nanoparticles made from microemulsion precursors: Exactly 2 mg of emulsifying wax was placed into six 7-ml glass scintillation vials. […]

`O=C(O)C(F)(F)C(F)(F)C(F)(F)C(F)(F)C(F)(F)C(F)(F)C(F)(F)F` [PDFOA, Pentadecafluorooctanoicacid]: the entries for the “Final (Ethanol) % w/w Solubilized in Perflubron/Fluorosurfactant (70/3 w/w)” value in series [1] and in series [1] (listed as Pentadecafluorooctanoicacid (PDFOA)) were “up to 37.2 % w/w” and 37.2 % w/w, respectively. In addition, the Solubility in perflubron result in series [2] is recorded as “did not dissolve”.
As to `COC(=O)C(F)(F)C(F)(F)C(F)(F)C(F)(F)C(F)(F)C(F)(F)C(F)(F)F` [D8, Pentadecafluoromethyloctanoate], the Solubility in perflubron result in series [2] is given as “soluble”.
In the case of `OCCC(F)(F)C(F)(F)C(F)(F)C(F)(F)C(F)(F)C(F)(F)F` [D3, Tridecafluoro-1-octanol], the Solubility in perflubron entry in series [2] is recorded as “soluble”.
With `O=C(O)C(F)(F)C(F)(F)C(F)(F)C(F)(F)C(F)(F)C(F)(F)C(F)(F)C(F)(F)C(F)(F)C(F)(F)C(F)(F)F` [Perfluorododecanoicacid (D7), Perfluorododecanoicacid], the “Final (Ethanol) % w/w Solubilized in Perflubron/Fluorosurfactant (70/3 w/w)” value in series [1] was found to be 59.2 % w/w.
Consider `CC(=O)C=C(C)[O-].CC(=O)C=C(C)[O-].CC(=O)C=C(C)[O-].[Gd+3]` [GdAcAc, Gadolinium acetylacetonate], for which, in series [3] (0.1 mg to 1 mg in emulsifying wax and Brij 72 nanoparticles (2 mg/mL)), the “Effect of GdAcAc entrapment on particle sizes of cured nanoparticles” value is “little or no effect”. The “Particle size of cured nanoparticles” value in series [3] (cooled to 25° C.) was “about 50 nm”.
For the compound `O=C(O)C(F)(F)C(F)(F)C(F)(F)C(F)(F)C(F)(F)C(F)(F)C(F)(F)C(F)(F)C(F)(F)C(F)(F)C(F)(F)C(F)(F)C(F)(F)F` [Perfluorotetradecanoicacid (D6), Perfluorotetradecanoicacid], the “Final (Ethanol) % w/w Solubilized in Perflubron/Fluorosurfactant (70/3 w/w)” value in series [1] is 66.6 % w/w.
For `O=C(O)C(F)(F)C(F)(F)C(F)(F)C(F)(F)C(F)(F)C(F)(F)F` [D5, Tridecafluoroheptanoicacid], in series [2], the Solubility in perflubron result was “soluble”.
On to “ASF-pal: asialofetuin derivatized with about 12 palmitate arms per molecule, hepatocyte-specific ligand”, for which the “Size of micelles formed alone in water” value is given as 3–15 nm in series [3] (67 μg/mL) and 3–10 nm in series [3] (1340 μg/mL). Moreover, the “Size of larger aggregates formed alone in water” value in series [3] (1340 μg/mL) was 40–300 nm. Further, the “Effect of adding ASF-pal on particle size of cured nanoparticles” value in series [3] (ASF-pal added to 200 μg nanoparticles per mL, 1 hour at 25° C.) was “only a small effect”.
